From EPA's ToxRefDB 2

Key:
rat [1] = conditions: Multigenerational reproductive toxicity study, sprague dawley, Oral, Gavage/Intubation, dose end: 1 generation
primate = conditions: Subchronic oral toxicity in nonrodent, macaque, Gavage/Intubation, dose end: 90 day, group: systemic, systemic / in life observation / clinical signs / defecation (diarrhea) + systemic / in life observation / clinical signs / emesis
rabbit [2] = conditions: Prenatal developmental toxicity study; new zealand white; Oral; Gavage/Intubation; dose end: 18 GD; group: maternal; systemic / in life observation / body weight / body weight gain + systemic / in life observation / clinical signs / [other] + systemic / in …
rat [3] = conditions: Prenatal developmental toxicity study, sprague dawley, Oral, Gavage/Intubation, dose end: 15 GD, group: maternal
rat [4] = conditions: Subchronic oral toxicity in rodents, sprague dawley, Gavage/Intubation, dose end: 30 day, group: systemic, systemic / in life observation / clinical signs / soft stools + systemic / in life observation / clinical signs / urine, discoloration
dog [5] = conditions: Chronic toxicity; beagle; Oral; Feed; dose end: 12 month; group: systemic; systemic / in life observation / body weight / body weight gain + systemic / in life observation / food consumption / food consumption + …
mouse [6] = conditions: Carcinogenicity; other; Oral; Feed; dose end: 18 month; group: systemic; systemic / in life observation / body weight / body weight + systemic / in life observation / body weight / body weight gain + systemic / in…
rat [7] = conditions: Subchronic oral toxicity in rodents, other, Feed, dose end: 3 month, group: systemic
dog [8] = conditions: Subchronic oral toxicity in nonrodent, beagle, Feed, dose end: 13 week, group: systemic, systemic / pathology microscopic / liver / infiltration cellular + systemic / pathology microscopic / liver / necrosis + systemic / …
rat [9] = conditions: Prenatal developmental toxicity study, other, Oral, Gavage/Intubation, dose end: 15 GD
rabbit [10] = conditions: Prenatal developmental toxicity study, chinchilla, Oral, Gavage/Intubation, dose end: 19 GD
rat [11] = conditions: Prenatal developmental toxicity study; wistar; Injection; Intraperitoneal; dose end: 18 GD; group: developmental; developmental / developmental malformation / placenta / size + systemic / in life observation / body weight / fetal weight
rat [12] = conditions: Prenatal developmental toxicity study; sprague dawley; Injection; Intraperitoneal; dose end: 20 GD; group: maternal; reproductive / reproductive performance / reproductive performance other / runts + systemic / in life observation / body weight / body …
rabbit [13] = conditions: Prenatal developmental toxicity study, new zealand white, Injection, Intravenous, dose end: 15 GD
rat [14] = conditions: Prenatal developmental toxicity study; wistar; Injection; Intraperitoneal; dose end: 18 GD; group: maternal; reproductive / reproductive performance / resorptions / resorptions + reproductive / reproductive performance / reproductive performance …
mouse [15] = conditions: Subchronic oral toxicity in rodents, b6c3f1, Gavage/Intubation, dose end: 14 week, group: systemic
rat [16] = conditions: Subchronic oral toxicity in rodents, fischer, Gavage/Intubation, dose end: 14 week
rat [17] = conditions: Carcinogenicity; fischer; Oral; Gavage/Intubation; dose end: 2 year; group: systemic; systemic / pathology microscopic / kidney / nephropathy + systemic / pathology microscopic / liver / clear cell focus + systemic / pathology…
mouse [18] = conditions: Carcinogenicity; b6c3f1; Oral; Gavage/Intubation; dose end: 2 year; group: systemic; systemic / pathology microscopic / bone marrow / hyperplasia + systemic / pathology microscopic / liver / hypertrophy + systemic / pathology…
rat [19] = conditions: Multigenerational reproductive toxicity study, sprague dawley, Oral, Gavage/Intubation, dose end: 1 generation, group: parental
rat [20] = conditions: Subchronic oral toxicity in rodents, fischer, Feed, dose end: 13 week, group: systemic, systemic / clinical chemistry / alanine aminotransferase (alt/sgpt) / alanine aminotransferase (alt/sgpt) + systemic / clinical chemistry / …
[21] = group: offspring, systemic / in life observation / body weight / offspring (pup) weight
[22] = group: parental, systemic / in life observation / clinical signs / [other]
[23] = group: parental, systemic / in life observation / clinical signs / [other] + systemic / in life observation / body weight / body weight gain + systemic / in …
[24] = systemic / in life observation / clinical signs / salivation + systemic / in life observation / clinical signs / soft stools + systemic / in…
[25] = systemic / pathology microscopic / urinary bladder / hyperplasia + systemic / clinical chemistry / bilirubin / total bilirubin
[26] = systemic / pathology microscopic / urinary bladder / hyperplasia + systemic / pathology microscopic / kidney / atrophy + systemic / …
[27] = group: developmental, developmental / developmental malformation / bone / bipartite ossification + developmental / developmental malformation / bone / dumbbell …
[28] = group: maternal, systemic / in life observation / body weight / body weight gain + systemic / in life observation / clinical signs / odorous urine + systemic…
[29] = group: developmental, developmental / developmental malformation / bone / unossified
[30] = group: maternal, systemic / in life observation / mortality / mortality + systemic / in life observation / clinical signs / reduced motor activity + systemic…
[31] = group: developmental, developmental / developmental malformation / bone / [other] + developmental / developmental malformation / brain / hydrocephaly + …
[32] = group: maternal, reproductive / reproductive performance / resorptions / resorptions
[33] = group: maternal, reproductive / reproductive performance / resorptions / resorptions + reproductive / offspring survival early / live fetuses / live fetuses
[34] = systemic / hematology / heinz body / heinz body + systemic / hematology / methemoglobin / methemoglobin + systemic / in life observation / …
[35] = systemic / organ weight / liver / absolute + systemic / organ weight / liver / relative to body weight + systemic / pathology microscopic / …
[36] = group: maternal, reproductive / reproductive performance / estrous cycle / abnormal
[37] = group: systemic, systemic / clinical chemistry / alanine aminotransferase (alt/sgpt) / alanine aminotransferase (alt/sgpt) + systemic / clinical chemistry / …
[38] = systemic / clinical chemistry / albumin / albumin + systemic / clinical chemistry / albumin-globulin ratio / albumin-globulin ratio + …
[39] = systemic / clinical chemistry / cholesterol / cholesterol

## COc1ccc2c(c[n+](C)c3c4cc5c(cc4ccc23)OCO5)c1OC.C[n+]1cc2c3c(ccc2c2ccc4cc5c(cc4c21)OCO5)OCO3.[Cl-].[Cl-] [Chelerythrine chloride mixture with sanguinarine chloride]
Rat [1]; [21]
  LEL: 100 mg/kg/day
  LOAEL: 100 mg/kg/day
  NEL: 30 mg/kg/day
  NOAEL: 30 mg/kg/day
Rat [1]; [22]
  LEL: 30 mg/kg/day
  LOAEL: 30 mg/kg/day
Rat [1]; [23]
  NEL: 10 mg/kg/day
  NOAEL: 10 mg/kg/day
primate
  LEL: 10 mg/kg/day
  LOAEL: 10 mg/kg/day
  NEL: < 10 mg/kg/day
  NOAEL: < 10 mg/kg/day
Rabbit [2]
  LEL: 25 mg/kg/day
  LOAEL: 25 mg/kg/day
  NEL: 15 mg/kg/day
  NOAEL: 15 mg/kg/day

## O=C(O)c1c(Cl)c(Cl)c(C(=O)O)c(Cl)c1Cl [Chlorthal]
Rat [3]; systemic / in life observation / clinical signs / salivation + systemic / in life observation / clinical signs / soft stools
  LOAEL: 2500 mg/kg/day
Rat [3]; [24]
  LEL: 2500 mg/kg/day
  NEL: 1250 mg/kg/day
  NOAEL: 1250 mg/kg/day
Rat [4]
  LEL: 2000 mg/kg/day
  LOAEL: 2000 mg/kg/day
  NEL: 500 mg/kg/day
  NOAEL: 500 mg/kg/day

## CCCCCC(C)OC(=O)COc1ccc(Cl)c2cccnc12 (stereo not drawn) [Cloquintocet-mexyl]
Dog [5]
  LEL: 196 mg/kg/day
  LOAEL: 196 mg/kg/day
  NEL: 43 mg/kg/day
  NOAEL: 43 mg/kg/day
Mouse [6]
  LEL: 520 mg/kg/day
  LOAEL: 520 mg/kg/day
  NEL: 102 mg/kg/day
  NOAEL: 102 mg/kg/day
Rat [7]; [25]
  LEL: 63.9 mg/kg/day
  LOAEL: 63.9 mg/kg/day
Rat [7]; [26]
  NEL: 9.66 mg/kg/day
  NOAEL: 9.66 mg/kg/day
Dog [8]
  LEL: 30.2 mg/kg/day
  LOAEL: 30.2 mg/kg/day
  NEL: 3.3 mg/kg/day
  NOAEL: 3.3 mg/kg/day
Rat [9]; [27]
  LEL: 400 mg/kg/day
  LOAEL: 400 mg/kg/day
  NEL: 100 mg/kg/day
  NOAEL: 100 mg/kg/day
Rat [9]; [28]
  LEL: 400 mg/kg/day
  LOAEL: 400 mg/kg/day
  NEL: 100 mg/kg/day
  NOAEL: 100 mg/kg/day
Rabbit [10]; [29]
  LEL: 60 mg/kg/day
  LOAEL: > 300 mg/kg/day
  NEL: 10 mg/kg/day
  NOAEL: ≥ 300 mg/kg/day
Rabbit [10]; group: maternal, systemic / in life observation / mortality / mortality
  LOAEL: 300 mg/kg/day
Rabbit [10]; [30]
  LEL: 300 mg/kg/day
  NEL: 60 mg/kg/day
  NOAEL: 60 mg/kg/day

## CN(Cc1cnc2nc(N)nc(N)c2n1)c1ccc(C(=O)N[C@@H](CCC(=O)O)C(=O)O)cc1 [Methotrexate]
Rat [11]
  LEL: 0.5 mg/kg/day
  LOAEL: > 0.5 mg/kg/day
  NEL: < 0.5 mg/kg/day
  NOAEL: ≥ 0.5 mg/kg/day
Rat [12]
  LEL: 0.5 mg/kg/day
  LOAEL: > 2 mg/kg/day
  NEL: < 0.5 mg/kg/day
  NOAEL: ≥ 2 mg/kg/day
Rabbit [13]; [31]
  LEL: 19.2 mg/kg/day
  LOAEL: > 19.2 mg/kg/day
  NOAEL: ≥ 19.2 mg/kg/day
Rabbit [13]; [32]
  LEL: 9.6 mg/kg/day
  NEL: 4.8 mg/kg/day
Rabbit [13]; [33]
  LOAEL: > 19.2 mg/kg/day
  NOAEL: ≥ 19.2 mg/kg/day
Rat [14]
  LEL: 0.5 mg/kg/day
  LOAEL: > 2 mg/kg/day
  NEL: < 0.5 mg/kg/day
  NOAEL: ≥ 2 mg/kg/day

## Cc1ccc(N(C)C)cc1 [N,N,4-Trimethylaniline]
Mouse [15]; [34]
  LOAEL: > 250 mg/kg/day
  NOAEL: ≥ 250 mg/kg/day
Mouse [15]; [35]
  LEL: 15 mg/kg/day
  NEL: < 15 mg/kg/day
Rat [16]; [36]
  LEL: 125 mg/kg/day
  LOAEL: > 1000 mg/kg/day
  NEL: 62.5 mg/kg/day
  NOAEL: ≥ 1000 mg/kg/day
Rat [16]; [37]
  LEL: 62.5 mg/kg/day
  LOAEL: > 1000 mg/kg/day
  NEL: < 62.5 mg/kg/day
  NOAEL: ≥ 1000 mg/kg/day
Rat [17]
  LEL: 6 mg/kg/day
  LOAEL: > 60 mg/kg/day
  NEL: < 6 mg/kg/day
  NOAEL: ≥ 60 mg/kg/day
Mouse [18]
  LEL: 6 mg/kg/day
  LOAEL: 6 mg/kg/day
  NEL: < 6 mg/kg/day
  NOAEL: < 6 mg/kg/day

## O=S(=O)([O-])C(F)(F)C(F)(F)C(F)(F)C(F)(F)C(F)(F)C(F)(F)F.[K+] [PFHS-K]
Rat [19]; [38]
  LOAEL: > 10 mg/kg/day
  NOAEL: ≥ 10 mg/kg/day
Rat [19]; [39]
  LEL: 0.3 mg/kg/day
  NEL: < 0.3 mg/kg/day

## CC(C)CCCCCOC(=O)c1nc(Cl)c(Cl)c(N)c1Cl [Picloram-isoctyl]
Rat [20]
  LEL: 220 mg/kg/day
  LOAEL: 220 mg/kg/day
  NEL: 73 mg/kg/day
  NOAEL: 73 mg/kg/day
